In assay [1] the target is T1, Muscarinic acetylcholine receptor M2 (Rattus norvegicus, UniProt P10980).
T1 sequence (P10980 whole entry): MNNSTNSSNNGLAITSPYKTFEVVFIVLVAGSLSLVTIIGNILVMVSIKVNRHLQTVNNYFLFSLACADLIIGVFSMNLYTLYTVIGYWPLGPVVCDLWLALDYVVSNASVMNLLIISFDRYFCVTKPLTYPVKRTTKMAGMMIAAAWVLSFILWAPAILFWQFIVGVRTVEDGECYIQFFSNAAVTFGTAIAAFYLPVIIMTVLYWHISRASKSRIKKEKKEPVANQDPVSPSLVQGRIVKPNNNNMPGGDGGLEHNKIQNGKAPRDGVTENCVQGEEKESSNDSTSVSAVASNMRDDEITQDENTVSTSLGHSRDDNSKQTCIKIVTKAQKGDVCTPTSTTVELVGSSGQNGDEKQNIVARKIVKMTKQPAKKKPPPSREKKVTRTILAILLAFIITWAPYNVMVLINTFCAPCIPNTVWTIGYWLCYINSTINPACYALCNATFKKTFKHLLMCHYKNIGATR
In words: Displacement of [3H]methylscopolamine binding to muscarinic M2 receptor in rat heart.

Assay [2] concerns the target Muscarinic acetylcholine receptor M3 (Rattus norvegicus, UniProt P08483). In words: Displacement of [3H]methylscopolamine binding to muscarinic M3 receptor in submaxillary salivary glands of rats. It counts as tissue-based, Salivary gland. Background: Displacement assays read how much labelled ligand stays bound in the presence of the test substance.
The target of assay [3] is T2, Muscarinic acetylcholine receptor M1 (Rattus norvegicus, UniProt P08482).
T2 sequence (P08482 whole entry): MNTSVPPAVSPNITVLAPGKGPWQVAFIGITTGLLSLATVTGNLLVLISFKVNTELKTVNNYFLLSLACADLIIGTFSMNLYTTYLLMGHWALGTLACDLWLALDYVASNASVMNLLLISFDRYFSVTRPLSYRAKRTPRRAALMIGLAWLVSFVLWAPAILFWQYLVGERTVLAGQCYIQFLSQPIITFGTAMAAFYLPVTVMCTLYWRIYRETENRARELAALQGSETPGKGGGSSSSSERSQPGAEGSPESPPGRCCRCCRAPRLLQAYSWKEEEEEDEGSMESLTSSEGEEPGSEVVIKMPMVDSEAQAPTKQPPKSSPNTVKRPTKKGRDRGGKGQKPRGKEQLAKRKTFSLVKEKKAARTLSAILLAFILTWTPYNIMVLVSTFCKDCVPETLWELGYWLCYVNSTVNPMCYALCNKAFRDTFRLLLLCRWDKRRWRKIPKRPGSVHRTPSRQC
In words: Displacement of [3H]pirenzepine binding to muscarinic M1 receptor in brain cortex of rat. It counts as tissue-based.

Structures are written as SMILES. Some results are limits rather than exact numbers.

Sequence of Muscarinic acetylcholine receptor M3 (P08483 whole entry): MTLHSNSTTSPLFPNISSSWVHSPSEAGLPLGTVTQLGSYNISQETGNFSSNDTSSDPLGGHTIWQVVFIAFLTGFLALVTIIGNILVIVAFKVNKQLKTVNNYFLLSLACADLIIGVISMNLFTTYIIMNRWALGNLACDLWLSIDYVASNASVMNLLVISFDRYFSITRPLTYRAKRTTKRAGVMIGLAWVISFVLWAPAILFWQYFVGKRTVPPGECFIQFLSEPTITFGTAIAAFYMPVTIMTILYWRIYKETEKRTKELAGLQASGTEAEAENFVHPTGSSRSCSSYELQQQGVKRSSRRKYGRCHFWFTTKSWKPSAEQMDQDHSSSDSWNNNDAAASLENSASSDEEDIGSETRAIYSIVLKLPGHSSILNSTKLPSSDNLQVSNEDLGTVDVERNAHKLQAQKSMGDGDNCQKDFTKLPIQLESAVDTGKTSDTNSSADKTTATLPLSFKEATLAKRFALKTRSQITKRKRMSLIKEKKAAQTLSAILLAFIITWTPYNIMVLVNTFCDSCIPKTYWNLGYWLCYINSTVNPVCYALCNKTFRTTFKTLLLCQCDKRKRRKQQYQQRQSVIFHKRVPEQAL

Turning to `Cc1cc(C(=O)c2ccccc2)ccc1NC(=O)CC1CCCN2CCCC[C@H]12` (some centres undefined), the IC50 in assay [1] came out at 2400 nM; in assay [2] it was 1300 nM; in assay [3], 8 nM.
For `O=C1Nc2cccnc2N(C(=S)CC2CCCN3CCCC[C@@H]23)c2ccccc21` (some centres undefined), in that order: 760 nM, 760 nM and 10 nM.
The like results for `O=C1c2ccccc2-n2c(nc3cccnc32)CN1C[C@@H]1CCCN2CCCC[C@H]12` were, in that order, 12000 nM, > 10000 nM and 1200 nM.
On to `O=C1Nc2cccnc2N(C(=O)C[C@@H]2CCCN3CCCCC23)c2ccccc21` (some centres undefined), for which the IC50 is 6000 nM in assay [1], > 10000 nM in assay [2] and 110 nM in assay [3].
For `O=C1Nc2cccnc2N(C(=O)CSCC2CCCN3CCCCC23)c2ccccc21` (centres undefined), in that order: 760 nM, 760 nM and 10 nM.
As for `O=C1Nc2cccnc2N(C(=O)CNCC2CCCN3CCCCC23)c2ccccc21` (centres undefined), the values for the IC50 in assay [1], in assay [2] and in assay [3] were 1000 nM, 800 nM and 28 nM, respectively.
As for `O=C1Nc2cccnc2N(C(=O)C[C@H]2CCCN3CCCCC23)c2ccccc21` (some centres undefined), the IC50 in assay [1] was 1900 nM; in assay [2], 3500 nM; in assay [3] it was 40 nM.
For `O=C1Nc2ccccc2N(C(=O)CC2CCCN3CCCCC23)c2ncccc21` (centres undefined), in that order: 6800 nM, > 10000 nM and 650 nM.

As usually defined, the IC50 is the concentration that inhibits the measured activity by half. High values mean weaker potency in that assay, low ones greater potency in that assay.

For the origin of these results see ChEMBL document CHEMBL1131857, “Quinolizidinyl derivatives of 5,11-dihydro-6H-pyrido[2,3-b][1,4]benzodiazepin-6-one as ligands for muscarinic receptors” (Bioorg Med Chem Lett, 1999).
